{
  "source": "patent US12121521B2",
  "about": "“Uses of salt-inducible kinase (SIK) inhibitors for treating osteoporosis” (The General Hospital Corporation, priority 2016, dated 2024)",
  "format_in_all_cases": "cell-based, mouse",
  "key": {"Ocy454 cells [1]": {"tested_on": "Ocy454 cells", "assay": "RNA-seq of treated Ocy454 cells", "description": "The ability of YKL-05-093 to mimic the effects of PTH with respect to SOST and RANKL gene regulation supports the hypothesis that the actions of YKL-05-093 might mimic the effects of PTH on many genes. Therefore, RNA-seq was perfumed on Ocy454 cells treated for four hours with vehicle, PTH (1 nM), or YKL-05-093 (0.5 μM) to determine the overlap in global gene regulation by these two agents. […] Of the 446 PTH-regulated genes, 142 (32%) were co-regulated in the same direction by YKL-05-093 (FIGS. 6A and 6B and Table 3 for differentially expressed genes, and Table 4 for all RNA-seq data). This significant overlap was not due to random chance (FIGS. 15A and 15B). Gene ontology analysis for the genes regulated by both PTH and YKL-05-093 is shown in FIGS. 15C and 15D: many of the co-regulated genes fit into categories of interest such as “ossification” and “mesenchyme development”,\nTotal RNA was subjected to rRNA depletion using RiboZero kit (Illumina) followed by NGS library construction using NEBNext Ultra Directional RNA Library Prep Kit for Illumina (New England Biolabs). Experimental duplicates were performed for each condition. Sequencing was performed on Illumina HiSeq 2500 instrument, resulting in an average of 33 million pairs of 50 bp reads per sample. Sequencing reads were mapped to the mouse reference genome (mm10/GRCm38) using STAR (bioinformatics.oxfordjournals.org/content/early/2012/10/25/bioinformatics.bts635). Gene expression counts were calculated using HTSeq v.0.6.0 (www.huber.embl.de/users/anders/HITSeq/doc/overview.html) based on a current Ensembl annotation file for mm10/GRCm38 (release 75). Differential expression analysis was performed using EgdeR package based on the criteria of >2-fold change in expression value versus control and false discovery rates (FDR)<0.05. Venn diagrams from gene set analysis were generated using genes with >1.5 fold change in expression values and FDR <0.05. Significance testing for gene set overlap was performed according to a standard hypergeometric distribution, p-values <2.2*10^−16. The accession number for the RNA-seq dataset reporter in this paper is GEO: GSE76932 (www.ncbi.nlm.nih.gov/geo/query/acc.cgi?acc=GSE76932)."}, "Ocy454 cells [2]": {"tested_on": "Ocy454 cells", "assay": "Immunoblotting of Ocy454 cell lysates (HDAC4/5, CRTC2, SIK2 phosphorylation and localisation)", "details": "10 uM, 90 minutes, compared to DMSO control; FIGS. 17 to 19", "description": "The Ocy454 osteocyte cell line was treated for 90 minutes with the indicated compound at 10 uM dose (FIG. 17). Phospho-HDAC4 S246 levels were monitored by immunoblotting (top band) compared to DMSO control.\nFor all experiments, a single cell subclone of Ocy454 cells (17, 18) was used. Cells were passages in alpha-MEM supplemented with 10% heat-inactivated fetal bovine serum and 1% antibiotics (penicillin/streptomycin, Fungizone) at 33° C. with 5% CO2. Cells were plated at 50,000 cells/ml and allowed to reach confluency at 33° C. (typically in 2-3 days). At this point, cells were transferred to 37° C. for subsequent analysis. For immunoblotting, cells were always analyzed after culture at 37° C. for 7 days. For gene expression analysis, cells were analyzed after culture at 37° C. for 14 days. Mycoplasma contamination was ruled out by PCR. Cells were routinely assayed for SOST expression at 37° C. and examined for osteocytic morphology. […]"}, "Ocy454 cells [3]": {"tested_on": "Ocy454 cells", "assay": "Gene expression in Ocy454 cells by RT-qPCR", "details": "0.5 μM, 3.5 hours; FIG. 21", "description": "In FIG. 21, Ocy454 cells (osteocyte cell line, also known at 6-9 cells) were cultured at 37° C. for 2 weeks to permit osteocyte differentiation. The cells were then treated with the indicated compound (0.5 μM) for 3.5 hours, and gene expression was analyzed by RT-qPCR. SOST expression was reduced by the indicated compounds. RANKL expression was increased by the indicated compounds. […] Therefore, these changes in gene expression may be due to on-target effects of the indicated compound.\nFor all experiments, a single cell subclone of Ocy454 cells (17, 18) was used. Cells were passages in alpha-MEM supplemented with 10% heat-inactivated fetal bovine serum and 1% antibiotics (penicillin/streptomycin, Fungizone) at 33° C. with 5% CO2. Cells were plated at 50,000 cells/ml and allowed to reach confluency at 33° C. (typically in 2-3 days). At this point, cells were transferred to 37° C. for subsequent analysis. For immunoblotting, cells were always analyzed after culture at 37° C. for 7 days. For gene expression analysis, cells were analyzed after culture at 37° C. for 14 days. Mycoplasma contamination was ruled out by PCR. Cells were routinely assayed for SOST expression at 37° C. and examined for osteocytic morphology.\nTotal RNA was extracted from cultured cells using RNeasy (Qiagen, Venlo, Netherlands) following the manufacturer's instructions. For long bone RNA isolation, mice were sacrificed and both femurs were rapidly dissected on ice. Soft tissue was removed and epiphyses cut. Bone marrow cells were then removed by serial flushing with ice-cold PBS. TRIzol (Life Technologies) was added and sampled were frozen at −80C and then homogenized. RNA was then extracted per the manufacturer's instructions, and further purified on RNeasy microcolumns prior to cDNA synthesis. RNA with A260/280 ratio <1.7 was not used for downstream analysis. For cDNA synthesis, 1 μg RNA was used in synthesis reactions according to the instructions of the manufacturer (Primescript RT, Takara). SYBR Green-based qPCR detection was performed using FastStart Universal SYBR Green (Roche, Basel, Switzerland) on a StepOne Plus (Applied Biosystems, Carlsbad, CA) thermocycler."}},
  "note": "“Also recorded” adds a separate entry of the source.",
  "data": [
    {"smiles": "COc1ccc(N2C(=O)N(c3c(C)cccc3C)Cc3cnc(Nc4ccc(C5CCN(C)CC5)c(OC)c4)nc32)c(OC)c1", "note": "[YKL-05-093]", "values": [
      {"measurement": "genes down-regulated by both PTH and YKL-05-093", "setting": "Ocy454 cells [1]", "value": 45, "unit": "genes"},
      {"measurement": "genes down-regulated by the agent alone", "setting": "Ocy454 cells [1]", "value": 59, "unit": "genes"},
      {"measurement": "genes up-regulated by both PTH and YKL-05-093", "setting": "Ocy454 cells [1]", "value": 97, "unit": "genes"},
      {"measurement": "genes up-regulated by the agent alone", "setting": "Ocy454 cells [1]", "value": 56, "unit": "genes"},
      {"measurement": "Phospho-HDAC4 S246 levels", "setting": "Ocy454 cells [2]", "value": "showed clear activity with respect to reducing HDAC4 S246 levels; also recorded: most reproducibly led to reduced HDAC4 S246 phosphorylation"},
      {"measurement": "RANKL expression", "setting": "Ocy454 cells [3]", "value": "most active in these experiments at reducing SOST and increasing RANKL"},
      {"measurement": "SOST expression", "setting": "Ocy454 cells [3]", "value": "most active in these experiments at reducing SOST"}
    ]}
  ]
}
